For 25 compounds, AC50 results are on record in patent publication US20230365592A1 (Agios Pharmaceuticals, Inc., priority 2022, published 2023).

The experiment addresses T1, human PAH with the R408W mutation (Homo sapiens, UniProt P00439, R408W).
T1 construct: expressed in transfected cells
T1 sequence (P00439 1-452 R408W): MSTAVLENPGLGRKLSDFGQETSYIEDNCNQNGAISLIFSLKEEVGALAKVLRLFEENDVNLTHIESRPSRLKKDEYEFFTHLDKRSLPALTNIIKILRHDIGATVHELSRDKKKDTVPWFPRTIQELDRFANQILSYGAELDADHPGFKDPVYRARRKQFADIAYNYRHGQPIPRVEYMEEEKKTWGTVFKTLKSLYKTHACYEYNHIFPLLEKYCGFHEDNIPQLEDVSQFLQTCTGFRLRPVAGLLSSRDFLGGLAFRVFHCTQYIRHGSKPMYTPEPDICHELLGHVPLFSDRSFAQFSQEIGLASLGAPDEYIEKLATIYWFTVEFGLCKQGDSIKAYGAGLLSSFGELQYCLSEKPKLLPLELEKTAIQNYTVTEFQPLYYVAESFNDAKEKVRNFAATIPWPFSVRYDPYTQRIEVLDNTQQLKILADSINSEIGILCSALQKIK
As to the kind of experiment: Cell Based Phenylalanine Flux Assay.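 Further: after compound treatment, cells received sepiapterin plus isotope-labelled Phenylalanine for 4 hours, then labelled Tyrosine in the medium was quantified, 10-point 2-fold dilution series run in duplicate.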 Conditions: A375 cells expressing human R408W PAH; 24 hrs compound incubation; 13C-Tyrosine by LC-MS; average where tested multiple times; read-out: AC50.

SMILES strings stand for the structures.

On to `O=C(c1nnc(-c2cnn(C(F)F)c2)o1)N1CCc2[nH]cnc2[C@@H]1c1cc2cccc(Cl)n2n1` [Example 1121, (R)-(4-(7-chloropyrazolo[1,5-a]pyridin-2-yl)-6,7-dihydro-1H-imidazo[4,5-c]pyridin-5(4H)-yl)(5-(1-(difluoromethyl)-1H-pyrazol-4-yl)-1,3,4-oxadiazol-2-yl)methanone], for which the half-maximal activity concentration (AC50) (as a rule, the midpoint of the concentration-response curve, whichever way the signal moves) was in the range of 1000 to 5000 nM. In the case of `CC(C)(C)c1nnc(C(=O)N2CCc3[nH]cnc3[C@@H]2c2cc3cccc(Cl)n3n2)o1` [Example 1122, (R)-(5-(tert-butyl)-1,3,4-oxadiazol-2-yl)(4-(7-chloropyrazolo[1,5-a]pyridin-2-yl)-6,7-dihydro-1H-imidazo[4,5-c]pyridin-5(4H)-yl)methanone], the AC50 lay in the range of 1000 to 5000 nM. Under `CC(C)(C)c1nnc(C(=O)N2CCc3[nH]cnc3[C@H]2c2cc3cccc(Cl)n3n2)o1` [Example 1123, (S)-(5-(tert-butyl)-1,3,4-oxadiazol-2-yl)(4-(7-chloropyrazolo[1,5-a]pyridin-2-yl)-6,7-dihydro-1H-imidazo[4,5-c]pyridin-5(4H)-yl)methanone] stands below 500 nM; under `CC(C)(C)c1nnc(C(=O)N2CCc3[nH]cnc3[C@H]2c2cc3ccc(F)cn3n2)o1` [Example 1124, (S)-(5-(tert-butyl)-1,3,4-oxadiazol-2-yl)(4-(6-fluoropyrazolo[1,5-a]pyridin-2-yl)-6,7-dihydro-1H-imidazo[4,5-c]pyridin-5(4H)-yl)methanone], 500 to 1000 nM. Under `Cn1nc(C(F)F)nc1C(=O)N1CCc2[nH]cnc2[C@H]1c1cc2ccc(C(F)(F)F)cn2n1` [Example 1126, (S)-(3-(difluoromethyl)-1-methyl-1H-1,2,4-triazol-5-yl)(4-(6-(trifluoromethyl)pyrazolo[1,5-a]pyridin-2-yl)-6,7-dihydro-1H-imidazo[4,5-c]pyridin-5(4H)-yl)methanone] stands below 500 nM; under `Cn1ccc(-c2nnc(C(=O)N3CCc4[nH]cnc4[C@H]3c3cc4ccc(C(F)(F)F)cn4n3)o2)n1` [Example 1128, (S)-(5-(1-methyl-1H-pyrazol-3-yl)-1,3,4-oxadiazol-2-yl)(4-(6-(trifluoromethyl)pyrazolo[1,5-a]pyridin-2-yl)-6,7-dihydro-1H-imidazo[4,5-c]pyridin-5(4H)-yl)methanone], 500 to 1000 nM; under `Cn1ccc(-c2nnc(C(=O)N3CCc4[nH]cnc4[C@@H]3c3cc4ccc(C(F)(F)F)cn4n3)o2)n1` [Example 1129, (R)-(5-(1-methyl-1H-pyrazol-3-yl)-1,3,4-oxadiazol-2-yl)(4-(6-(trifluoromethyl)pyrazolo[1,5-a]pyridin-2-yl)-6,7-dihydro-1H-imidazo[4,5-c]pyridin-5(4H)-yl)methanone], 1000 to 5000 nM. In the case of `O=C(c1nnc(C2CC2)o1)N1CCc2[nH]cnc2[C@H]1c1cc2cc(F)ccn2n1` [Example 1130, (S)-(5-cyclopropyl-1,3,4-oxadiazol-2-yl)(4-(5-fluoropyrazolo[1,5-a]pyridin-2-yl)-6,7-dihydro-1H-imidazo[4,5-c]pyridin-5(4H)-yl)methanone], the half-maximal activity concentration (AC50) is 500 to 1000 nM. `O=C(c1nnc(C2CC2)o1)N1CCc2[nH]cnc2[C@@H]1c1cc2cc(F)ccn2n1` [Example 1131, (R)-(5-cyclopropyl-1,3,4-oxadiazol-2-yl)(4-(5-fluoropyrazolo[1,5-a]pyridin-2-yl)-6,7-dihydro-1H-imidazo[4,5-c]pyridin-5(4H)-yl)methanone]: the AC50 lay in the range of 1000 to 5000 nM. The same measure for `O=C(c1ccnn1C(F)F)N1CCc2[nH]cnc2[C@H]1c1cc2cc(C(F)(F)F)ccn2n1` [Example 1132, (S)-(1-(difluoromethyl)-1H-pyrazol-5-yl)(4-(5-(trifluoromethyl)pyrazolo[1,5-a]pyridin-2-yl)-6,7-dihydro-1H-imidazo[4,5-c]pyridin-5(4H)-yl)methanone]: below 500 nM; for `O=C(c1nnc(-c2cnn(C(F)F)c2)o1)N1CCc2[nH]cnc2[C@H]1c1cc2c(Cl)cccn2n1` [Example 1134, (S)-(4-(4-chloropyrazolo[1,5-a]pyridin-2-yl)-6,7-dihydro-1H-imidazo[4,5-c]pyridin-5(4H)-yl)(5-(1-(difluoromethyl)-1H-pyrazol-4-yl)-1,3,4-oxadiazol-2-yl)methanone]: below 500 nM; for `O=C(c1nnc(-c2cnn(C(F)F)c2)o1)N1CCc2[nH]cnc2[C@@H]1c1cc2c(Cl)cccn2n1` [Example 1135, (R)-(4-(4-chloropyrazolo[1,5-a]pyridin-2-yl)-6,7-dihydro-1H-imidazo[4,5-c]pyridin-5(4H)-yl)(5-(1-(difluoromethyl)-1H-pyrazol-4-yl)-1,3,4-oxadiazol-2-yl)methanone]: 1000 to 5000 nM. Under `O=C(c1ccnn1C(F)F)N1CCc2[nH]cnc2[C@H]1c1cc2ccc(C(F)(F)F)cn2n1` [Example 1138, (S)-(1-(difluoromethyl)-1H-pyrazol-5-yl)(4-(6-(trifluoromethyl)pyrazolo[1,5-a]pyridin-2-yl)-6,7-dihydro-1H-imidazo[4,5-c]pyridin-5(4H)-yl)methanone] stands below 500 nM; under `O=C(c1nnc(C2CC2)o1)N1CCc2[nH]cnc2[C@H]1c1cc2cccc(C(F)(F)F)n2n1` [Example 1140, (S)-(5-cyclopropyl-1,3,4-oxadiazol-2-yl)(4-(7-(trifluoromethyl)pyrazolo[1,5-a]pyridin-2-yl)-6,7-dihydro-1H-imidazo[4,5-c]pyridin-5(4H)-yl)methanone], 500 to 1000 nM; under `Cn1nc(Cl)nc1C(=O)N1CCc2[nH]cnc2[C@H]1c1cc2cccc(Cl)n2n1` [Example 1142, (S)-(3-chloro-1-methyl-1H-1,2,4-triazol-5-yl)(4-(7-chloropyrazolo[1,5-a]pyridin-2-yl)-6,7-dihydro-1H-imidazo[4,5-c]pyridin-5(4H)-yl)methanone], below 500 nM. The same measure for `Cn1ncnc1C(=O)N1CCc2[nH]cnc2[C@H]1c1cc2cccc(C(F)(F)F)n2n1` [Example 1144, (S)-(1-methyl-1H-1,2,4-triazol-5-yl)(4-(7-(trifluoromethyl)pyrazolo[1,5-a]pyridin-2-yl)-6,7-dihydro-1H-imidazo[4,5-c]pyridin-5(4H)-yl)methanone]: 500 to 1000 nM; for `Cc1cccc2cc([C@@H]3c4nc[nH]c4CCN3C(=O)c3ocnc3C(F)(F)F)nn12` [Example 1146, (S)-(4-(7-methylpyrazolo[1,5-a]pyridin-2-yl)-6,7-dihydro-1H-imidazo[4,5-c]pyridin-5(4H)-yl)(4-(trifluoromethyl)oxazol-5-yl)methanone]: below 500 nM; for `Cc1ncoc1C(=O)N1CCc2[nH]cnc2[C@H]1c1cc2cccc(C)n2n1` [Example 1148, (S)-(4-methyloxazol-5-yl)(4-(7-methylpyrazolo[1,5-a]pyridin-2-yl)-6,7-dihydro-1H-imidazo[4,5-c]pyridin-5(4H)-yl)methanone]: 500 to 1000 nM. As to `Cc1ncoc1C(=O)N1CCc2[nH]cnc2[C@@H]1c1cc2cccc(C)n2n1` [Example 1149, (R)-(4-methyloxazol-5-yl)(4-(7-methylpyrazolo[1,5-a]pyridin-2-yl)-6,7-dihydro-1H-imidazo[4,5-c]pyridin-5(4H)-yl)methanone], the half-maximal activity concentration (AC50) was 1000 to 5000 nM.

As to `Cc1cccc2cc([C@@H]3c4nc[nH]c4CCN3C(=O)c3oc(C(C)(C)O)nc3C(F)(F)F)nn12` [Example 1150, (S)-(2-(2-hydroxypropan-2-yl)-4-(trifluoromethyl)oxazol-5-yl)(4-(7-methylpyrazolo[1,5-a]pyridin-2-yl)-6,7-dihydro-1H-imidazo[4,5-c]pyridin-5(4H)-yl)methanone], the AC50 was below 500 nM.

Consider `Cc1cccc2cc([C@@H]3c4nc[nH]c4CCN3C(=O)c3oc([C@H](C)O)nc3C(F)F)nn12` [Example 1152, (4-(difluoromethyl)-2-((S)-1-hydroxyethyl)oxazol-5-yl)((S)-4-(7-methylpyrazolo[1,5-a]pyridin-2-yl)-6,7-dihydro-1H-imidazo[4,5-c]pyridin-5(4H)-yl)methanone], for which the AC50 is below 500 nM. Under `O=C(c1ocnc1C(F)F)N1CCc2[nH]cnc2[C@H]1c1cc2cccc(C(F)(F)F)n2n1` [Example 1154, (S)-(4-(difluoromethyl)oxazol-5-yl)(4-(7-(trifluoromethyl)pyrazolo[1,5-a]pyridin-2-yl)-6,7-dihydro-1H-imidazo[4,5-c]pyridin-5(4H)-yl)methanone] stands below 500 nM; under `CC(C)(O)c1nc(C(F)F)c(C(=O)N2CCc3[nH]cnc3[C@H]2c2cc3cccc(C(F)(F)F)n3n2)o1` [Example 1156, (S)-(4-(difluoromethyl)-2-(2-hydroxypropan-2-yl)oxazol-5-yl)(4-(7-(trifluoromethyl)pyrazolo[1,5-a]pyridin-2-yl)-6,7-dihydro-1H-imidazo[4,5-c]pyridin-5(4H)-yl)methanone], below 500 nM; under `O=C(c1cnco1)N1CCc2[nH]cnc2[C@H]1c1cc2c(C(F)(F)F)cccn2n1` [Example 1158, (S)-oxazol-5-yl(4-(4-(trifluoromethyl)pyrazolo[1,5-a]pyridin-2-yl)-6,7-dihydro-1H-imidazo[4,5-c]pyridin-5(4H)-yl)methanone], 500 to 1000 nM. The same measure for `CC(C)(F)c1nnc(C(=O)N2CCc3[nH]cnc3[C@@H]2c2cc3cccc(C(F)(F)F)n3n2)o1` [Example 1160, (R)-(5-(2-fluoropropan-2-yl)-1,3,4-oxadiazol-2-yl)(4-(7-(trifluoromethyl)pyrazolo[1,5-a]pyridin-2-yl)-6,7-dihydro-1H-imidazo[4,5-c]pyridin-5(4H)-yl)methanone]: 1000 to 5000 nM.
